Data published in the NIST ThermoML archive (doi:10.1016/j.fluid.2014.02.018).
Numbers after ± are expanded uncertainties.

Settings: 313.15 K; Liquid; Closed cell (Static) method

Structure (SMILES)	vapor or sublimation pressure
CC(C)CC(C)(C)C [2,2,4-trimethylpentane]	12.95 ± 0.031 kPa
CCC(C)O (stereo not drawn) [butan-2-ol]	6.045 ± 0.02 kPa
C=CCCCC [hex-1-ene]	44.98 ± 0.2 kPa
